From patent US11512085B2, “Heteroaryl compound having drug activity” (SHANGHAI DUDE MEDICAL TECHNOLOGY CO., LTD, priority 2017, dated 2022)

Assays:
[1] = system: p-PLCγ/t-PLCγ; assay: Western blotting of p-PLCγ/t-PLCγ in anti-IgG stimulated DOHH2 cells; format: cell-based; conditions: DOHH2 cells, 5, 100, 2000 nM, 1 h, anti-IgG stimulation
Protocol: Biological Embodiment 4: Analysis of Influences of Test Compounds on p-Btk/t-Btk, p-PLCγ/t-PLCγ and p-Erk/t-Erk Expression Levels of DOHH2 Cells by Virtue of Western Blotting
1) DOHH2 cells on a logarithmic phase were collected;
2) a cell concentration was adjusted to a needed concentration;
3) 2 ml of cell suspension was added into a 6-well plate for performing culture, three different concentrations, that is, 5 nM, 100 nM and 2000 nM, of test samples were respectively set, and each concentration was repeated once;
4) test samples were added into plate wells, and DMSO served as control, wherein a final concentration of the DMSO was 0.1%;
5) culture was performed for 1 h; and […]
6. protein extraction and quantification […]
5) a protein concentration was determined by using Pierce™ BCA Protein Assay Kit; and
6) according to BCA protein quantification results, all samples were diluted to the same final concentration by adding 4×LDS sample buffer and 10× sample reducing agent into the RIPA buffer solution, and the solution was heated at 100° C. for 10 min. […]
10) chemiluminiscence was detected by Tanon 5200 multi.
7. Quantification of strip intensity
Intensity of each strip was quantified by using Image quant densitometry software. […]

[2] = biological target: hERG channel (Homo sapiens, UniProt Q12809); assay: hERG current blocking test (whole-cell patch clamp)
Sequence of hERG channel (Q12809 whole entry): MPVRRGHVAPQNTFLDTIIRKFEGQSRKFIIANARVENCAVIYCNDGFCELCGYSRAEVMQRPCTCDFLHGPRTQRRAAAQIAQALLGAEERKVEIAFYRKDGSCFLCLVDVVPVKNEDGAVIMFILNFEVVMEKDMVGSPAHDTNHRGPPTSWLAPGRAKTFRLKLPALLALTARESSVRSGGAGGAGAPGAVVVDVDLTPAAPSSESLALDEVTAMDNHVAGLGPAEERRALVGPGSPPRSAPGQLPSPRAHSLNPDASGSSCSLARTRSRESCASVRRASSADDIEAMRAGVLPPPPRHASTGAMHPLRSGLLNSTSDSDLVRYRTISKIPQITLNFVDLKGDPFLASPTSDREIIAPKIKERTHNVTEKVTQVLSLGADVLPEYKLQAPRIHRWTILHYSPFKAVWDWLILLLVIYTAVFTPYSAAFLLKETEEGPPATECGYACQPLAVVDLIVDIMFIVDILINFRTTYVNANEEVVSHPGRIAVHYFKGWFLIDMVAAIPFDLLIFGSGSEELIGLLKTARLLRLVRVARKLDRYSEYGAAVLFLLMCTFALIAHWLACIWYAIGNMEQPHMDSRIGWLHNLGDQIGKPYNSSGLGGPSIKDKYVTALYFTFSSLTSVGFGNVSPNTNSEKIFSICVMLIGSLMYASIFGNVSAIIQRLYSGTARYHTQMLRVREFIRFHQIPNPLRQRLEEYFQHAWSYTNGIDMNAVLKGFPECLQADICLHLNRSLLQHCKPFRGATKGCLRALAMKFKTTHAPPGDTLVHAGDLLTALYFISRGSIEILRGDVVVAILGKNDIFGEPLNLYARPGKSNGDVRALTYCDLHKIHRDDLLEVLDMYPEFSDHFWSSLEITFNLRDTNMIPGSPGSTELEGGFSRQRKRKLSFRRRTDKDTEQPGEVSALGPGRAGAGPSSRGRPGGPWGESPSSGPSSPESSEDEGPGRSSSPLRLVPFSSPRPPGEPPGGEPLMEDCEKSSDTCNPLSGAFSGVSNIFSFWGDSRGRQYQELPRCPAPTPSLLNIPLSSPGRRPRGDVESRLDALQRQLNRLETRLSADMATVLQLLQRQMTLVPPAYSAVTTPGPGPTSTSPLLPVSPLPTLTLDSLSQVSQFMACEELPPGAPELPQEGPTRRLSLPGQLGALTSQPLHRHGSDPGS

[3] = system: Ramos; assay: In vitro tumor cell proliferation (CellTiter-Glo), Ramos; format: cell-based; conditions: Homo sapiens, 72 h, read-out: Growth IC50
Protocol: Biological Embodiment 8: Study on Effects of Active Compounds for Inhibiting In Vitro Tumor Cell Proliferation
Promega CellTiter-Glo cell activity detection kit by luminescence (Promega-G7573).
Tumor cell lines were cultured in a 5% of CO2 incubator at 37° C. according to respective culture conditions; and periodic passage was performed, and cells positioned in a logarithmic phase were taken for planking.
3) 90 μL of cell suspension was added into each well of the culture plate, and a culture solution containing no cell was added into blank control;
4) the culture plate was cultured overnight in the 5% of CO2 incubator having relative humidity of 100% at 37° C.
Preparation of a 400× compound storage plate: the compound was diluted from the maximum concentration gradient to the lowest concentration with DMSO. […]
The following steps were performed according to the specification of the Promega CellTiter-Glo cell activity detection kit by luminescence (Promega-G7573). […]
9) the luminescence signal was detected on the 2104 EnVision plate reader.

[4] = Human liver microsome stability test; format: in vitro ADME
Protocol: Preparation of Buffer Solution:
1. 100 mM potassium phosphate buffer solution, pH of 7.4
Preparation of Test Compound Solution:
1. A test compound solution (10 mM, 5 μL) was diluted with a methanol solution (495 μL), and a 100 μM solution was prepared;
2. Preparation of a working solution: the above solution (50 μL) was diluted with the potassium phosphate buffer solution (450 μL, 100 mM) so as to obtain diluents (10 μM).
NADPH Regeneration System (Final Concentration 1 Unit/mL of Isocitrate Dehydrogenase):
1. beta-NADP, supplier: sigma Cat. No. N0505
3. isocitrate dehydrogenase, supplier: sigma Cat. No. 12002
Cold acetonitrile containing 100 ng/mL of tolbutamide and 100 ng/mL of labetalol serves as an internal standard
1. a 10 μL/well of working solution was added into plates (T0, T5, T10, T20, T30, T60, NCF60) beyond the blank;
2. a 80 μL/well of microsome solution was added, and incubation was performed at 37° C. for 10 min;
3. a 10 μL of 100 mM phosphate buffer solution was added into each well of an NCF60 plate, the plate was placed in a warm bath at 37° C., and timing started;
4. a 10 μL/well of NADPH regeneration system was added after preheating, and a reaction started;
5. incubation was performed at 37° C., and timing started
6. a 300 μL/well of stop solution was added (4° C., containing 100 ng/mL of tolbutamide and 100 ng/mL of labetalol) to end the reaction;
7. the plate was shaken for 10 min;
8. centrifugation was performed at 4° C. at a rotation speed of 4000 rpm; and
9. sample LC/MS/MS detection was performed.
Data Analysis Use Equation of First Order Kinetics to Calculate t½ and Clint(Mic): […]
equation of first order kinetics: […]

Q: Which “relative level of p-PLCγ/t-PLCγ” value [1] does the source give for `C=CC(=O)NN1CCCC(n2nc(-c3ccc(Oc4ccccc4)cc3)c3c(N)ncnc32)C1` (centres unmarked) [Embodiment 6, N-(3-(4-amino-3-(4-phenoxyphenyl)-1H-pyrazolo[3,4-D]pyrimidine-1-yl)-1-piperidyl)-acrylamide] here?
A: obviously decreased

Q: What about the IC50 [2] of the same compound?
A: 8.06 µM

Q: What about the IC50 [3] of the same compound?
A: 1.4 µM

Q: And the “Remaining (*NCF = 60 min)” value ([4]; HLM 0.5, 60 min, no co-factor)?
A: 105.9%

Q: What about the “Remaining (T = 60 min)” value ([4]; HLM 0.5, 60 min with NADPH regenerating system) of the same compound?
A: 0.2%

Q: What about the half-life at 1 µM ([4]; human, liver microsomes, pH 7.4, HLM 0.5 (0.5 mg protein/mL)) of the same compound?
A: 4.3 min

Q: What about the microsomal CLint at 1 µM ([4]; human, liver microsomes, pH 7.4, HLM 0.5, read-out: CLint(mic)) of the same compound?
A: 325 µL/min/mg

Q: And the CLint scaled at 1 µM ([4]; human, liver microsomes, pH 7.4, HLM 0.5, scaled from CLint(mic))?
A: 292 mL/min/kg
